“Also recorded” adds a separate entry of the source. Read-outs that look alike come from different tables or passages of the source.
Key:
9-ethyl adenine (9EtA) = assay: Reaction with nucleobase model 9-ethyl adenine, 1H NMR; type: binding; settings: pH* close to 7.4, 298 K
Experimental: (§1) Since DNA is believed to be the main target for metal anticancer drugs, nucleobase binding reactions of compounds 3-6, with nucleobase models, 9-ethyl guanine (9EtG) and 9-ethyl adenine (9EtA), were investigated.
(§2) Solutions of 3-6 (1 mM) (present as an equilibrium between 3-6 and their respective aqua adducts as the major species) with 1 mol equivalent of 9EtG (Table 14) or 9EtA (Table 15) in D2O were prepared and ^1H NMR spectra were taken at different time intervals.
(§3) Interactions with Nucleobases. The reaction of compounds 8-12 with nucleobases typically involved addition of a solution containing 1 mol equiv of nucleobase in D2O, to an equilibrium solution of compounds 8-12 in D2O (>90% aqua). The pH* value of the sample was adjusted if necessary so as to remain close to 7.4 (physiological). ^1H NMR spectra of these solutions were recorded at 298 K after various time intervals.

[1] = Hydrolysis (aquation) kinetics followed by 1H NMR; type: physicochemical; settings: Table 18; 288 K; 0.8 mM
Experimental: Hydrolysis. […] The rate of hydrolysis was determined by fitting plots of concentrations (determined by ^1H NMR peak integrals) versus time to a pseudo first-order equation using ORIGIN version 5.0 (Microcal Software Ltd.).

9-ethyl guanine (9EtG) = assay: Reaction with nucleobase model 9-ethyl guanine, 1H NMR; type: binding; settings: pH* close to 7.4, 298 K
Experimental: as §1, §2, §3

[2] = test system: human lung A549 cancer cells; assay: Cytotoxicity towards A549 cells, sulforhodamine B (SRB) assay; type: cell-based
Experimental: (§4) Experimental: Cytotoxicity Towards A2780 and A549 Human Cancer Cells. After plating, human ovarian A2780 cancer cells were treated with Os^II complexes on day 3, and human lung A549 cancer cells on day 2, at concentrations ranging from 2 μM to 50 μM. Solutions of the Os^II complexes were made up in 0.125% DMSO to assist dissolution. Cells were exposed to the complexes for 24 h, washed, supplied with fresh medium, allowed to grow for three doubling times (72 h), and then the protein content measured (proportional to cell survival) using the sulforhodamine B (SRB) assay.
(§5) Cancer Cell Cytotoxicity. After plating, human ovarian A2780 cancer cells were treated with OsII complexes on day 3, and human lung A549 cancer cells on day 2, at concentrations ranging from 0.1 μM to 100 μM. Solutions of the OsII complexes were made up in 0.125% DMSO to assist dissolution. Cells were exposed to the complexes for 24 h, washed, supplied with fresh medium, allowed to grow for three doubling times (72 h), and then the protein content measured (proportional to cell survival) using the sulforhodamine B (SRB) assay.10

[3] = test system: human ovarian A2780 cancer cells; assay: Cytotoxicity towards A2780 cells, sulforhodamine B (SRB) assay; type: cell-based
Experimental: as §4, §5

[4] = Acidity (pKa / pKa*) of coordinated water, 1H NMR pH* titration; settings: aqua adduct
Excerpt: pKa* calculations. […] The chemical shifts of the arene ring protons were plotted against pH*. The pH* titration curves were fitted to the Henderson-Hasselbalch equation, with the assumption that the observed chemical shifts are weighted averages according to the populations of the protonated and deprotonated species.

[5] = Table 7, 24 h exposure, 72 h growth, 2-50 μM, read-out: IC50/μM A549
[6] = Table 7, 24 h exposure, 72 h growth, 2-50 μM, read-out: IC50/μM A2780

Molecule | +1 eq. 9-EtA (% adduct formation) (9-ethyl adenine (9EtA); t = 0.17 h) [%] | +1 eq. 9-EtA (% adduct formation) (9-ethyl adenine (9EtA); t = 24 h) [%] | Hydrolysis k/h^−1 [1] | +1 eq. 9-EtG (% adduct formation) (9-ethyl guanine (9EtG); t = 0.17 h) [%] | +1 eq. 9-EtG (% adduct formation) (9-ethyl guanine (9EtG); t = 24 h) [%] | IC50 [2, 5] [µM] | IC50 [3, 6] [µM] | pKa of water coordinated on hydrolysis (aqua adduct of complex) [4] | further results
O=C(c1ccccn1)[N]([Os][Cl])c1ccccc1.c1ccc(-c2ccccc2)cc1 [Compound 10, [(η^6-bip)Os(N-Ph-picolinamide)Cl]PF6] | 0 | 0 | ≧5.9 h^−1 | 73 | 73 | – | – | – | –
Cc1ccc(C(C)C)cc1.O=C1c2cccc[n+]2[Os-]([Cl])[N]1c1ccccc1[N+](=O)[O-] [Compound 11] | 0 | 0 | ≧5.9 h^−1 | 69 | 69 | – | – | – | –
C1=CCC2=C(C1)Cc1ccccc1C2.F[P-](F)(F)(F)(F)F.NCCN.[Cl][Ru+] [HC11, reference compound] | – | – | – | – | – | 0.5 | 0.5 | 8.01 | –
CC(=O)C=C(C)[O][Ru][Cl].Cc1ccc(C(C)C)cc1 [MMS6, reference compound] | – | – | – | – | – | > 100 | 19 | 9.4 | –
Cc1ccc(C(C)C)cc1.NCC(=O)[O][Ru][Cl] [RF01, reference compound] | – | – | – | – | – | – | > 100 | 8.65 | –
CC(N)C(=O)[O][Ru][Cl].Cc1ccc(C(C)C)cc1 [RF02(a), reference compound] | – | – | – | – | – | – | > 100 | – | –
Cc1ccc(C(C)C)cc1.NCCC(=O)[O][Ru][Cl] [RF11, reference compound] | – | – | – | – | – | – | > 100 | – | –
O=C([O][Ru][Cl])C1CCCCN1.c1ccc(-c2ccccc2)cc1 [RF16, reference compound] | – | – | – | – | – | – | > 100 | – | –
[(η^6-p-cym)Os(N-2,4-difluoride-Ph-picolinamide)Cl]PF6 [Compound 8] | 0 | 0 | ≧5.9 h^−1 | 56 | 56 | – | – | – | Activity in A549 cancer cell line [2]: moderately cytotoxic; IC50 ([2]; Example 6, read-out: IC50 in human lung A549 cancer cell line): 10 to 50 µM; Activity in A2780 cancer cell line [3]: cytotoxic; also recorded: active; IC50 ([3]; Table 19, read-out: IC50 (μM) in A2780): 8.2 µM
[(η^6-p-cym)Os(O2C6H3CH3NCH3)Cl] [AFAP57] | – | – | – | – | – | > 100 | 40 | 8.31 | –
